PubChem BioAssay AID248 (DTP/NCI, 2004)
Toxic doses and inconclusive results are not listed. Rule as the data show it: active = T/C of 150% or more; inactive = T/C below 125%. Peptide text beside a SMILES is read from it. * marks the point of attachment. Boc = CC(C)(C)OC(=O)*

System: L1210 leukemia ip in BDF1 mice, survival T/C
Experiment: NCI In Vivo Anticancer Drug Screen. Data for tumor model L1210 Leukemia (intraperitoneal) in B6D2F1 (BDF1) mice
Details: endpoint: mean survival time, higher = longer survival
Procedure, shortened: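 In this screen, tumor-bearing mice given compound are compared to those given vehicle, and their survival values are reported as a treated-to-control quotient.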

[1] = dose: 100.0 mg/kg/injection, schedule: Q04DX003 (ip), vehicle: saline with Tween-80
[2] = dose: 200.0 mg/kg/injection, schedule: Q04DX003 (ip), vehicle: saline with Tween-80
[3] = dose: 400.0 mg/kg/injection, schedule: Q04DX003 (ip), vehicle: saline with Tween-80
[4] = dose: 100.0 mg/kg/injection, schedule: Q01DX001 (ip), vehicle: saline
[5] = dose: 100.0 mg/kg/injection, schedule: Q01DX009 (ip), vehicle: saline with Tween-80
[6] = dose: 200.0 mg/kg/injection, schedule: Q01DX009 (ip), vehicle: saline with Tween-80
[7] = dose: 100.0 mg/kg/injection, schedule: Q01DX009 (ip), vehicle: Klucel (hydroxypropylcellulose) (HPC)
[8] = dose: 100.0 mg/kg/injection, schedule: Q04DX003 (ip), vehicle: Klucel (hydroxypropylcellulose) (HPC)
[9] = dose: 200.0 mg/kg/injection, schedule: Q01DX009 (ip), vehicle: Klucel (hydroxypropylcellulose) (HPC)
[10] = dose: 200.0 mg/kg/injection, schedule: Q04DX003 (ip), vehicle: Klucel (hydroxypropylcellulose) (HPC)
[11] = dose: 400.0 mg/kg/injection, schedule: Q01DX009 (ip), vehicle: Klucel (hydroxypropylcellulose) (HPC)
[12] = dose: 400.0 mg/kg/injection, schedule: Q04DX003 (ip), vehicle: Klucel (hydroxypropylcellulose) (HPC)
[13] = dose: 50.0 mg/kg/injection, schedule: Q01DX001 (ip), vehicle: carboxymethylcellulose (CMC)
[14] = dose: 100.0 mg/kg/injection, schedule: Q01DX001 (ip), vehicle: carboxymethylcellulose (CMC)
[15] = dose: 200.0 mg/kg/injection, schedule: Q01DX001 (ip), vehicle: carboxymethylcellulose (CMC)
[16] = dose: 400.0 mg/kg/injection, schedule: Q01DX001 (ip), vehicle: carboxymethylcellulose (CMC)
[17] = dose: 100.0 mg/kg/injection, schedule: Q04DX003 (ip), vehicle: saline
[18] = dose: 400.0 mg/kg/injection, schedule: Q01DX009 (ip), vehicle: saline with Tween-80

Measured: T/C

CCOC(=O)C(C(=O)OCC)C(=O)c1cccc2ccc3ccccc3c12
inactive: [1] 96 % of control | [2] 96 % of control | [3] 97 % of control

C=C(C=O)C1CCC2=C(CCC3(C)C(C(C)CCCC(C)C)CCC23C)C1(C)CCC#N (configuration not stated)
inactive: [1] 93 % of control | [2] 96 % of control | [3] 93 % of control

c1ccc([P+](CC2CCCO2)(c2ccccc2)c2ccccc2)cc1 (configuration not stated)
inactive: [4] 113 % of control

Cc1ccc(CSC(=N)N)cc1C
inactive: dose: 25.0 mg/kg/injection, schedule: Q04DX002 (ip), vehicle: Klucel (hydroxypropylcellulose) (HPC) 98 % of control | dose: 50.0 mg/kg/injection, schedule: Q04DX002 (ip), vehicle: Klucel (hydroxypropylcellulose) (HPC) 103 % of control | dose: 100.0 mg/kg/injection, schedule: Q04DX002 (ip), vehicle: Klucel (hydroxypropylcellulose) (HPC) 101 % of control

COc1ccc(/C=N/NC(=O)C[n+]2ccccc2)cc1
inactive: dose: 50.0 mg/kg/injection, schedule: Q01DX009 (ip), vehicle: saline with Tween-80 91 % of control | [5] 112 % of control | [6] 88 % of control

O=C(Oc1c(Cl)cc(Cl)cc1C=Nc1cccc(C(F)(F)F)c1)c1ccccc1
inactive: dose: 100.0 mg/kg/injection, schedule: Q01DX009 (ip), vehicle: other 101 % of control | dose: 200.0 mg/kg/injection, schedule: Q01DX009 (ip), vehicle: other 101 % of control | dose: 400.0 mg/kg/injection, schedule: Q01DX009 (ip), vehicle: other 101 % of control

Clc1ccc(Cl)nc1
inactive: [7] 103 % of control | [8] 98 % of control | [9] 93 % of control | [10] 98 % of control | [11] 103 % of control | [12] 88 % of control

COc1ccc(N=Cc2ccc(OC(=O)c3ccccc3)c(OC)c2)cc1
inactive: dose: 100.0 mg/kg/injection, schedule: Q04DX002 (ip), vehicle: saline with Tween-80 100 % of control | dose: 200.0 mg/kg/injection, schedule: Q04DX002 (ip), vehicle: saline with Tween-80 100 % of control | dose: 400.0 mg/kg/injection, schedule: Q04DX002 (ip), vehicle: saline with Tween-80 93 % of control

CC(=S)SCC(C)C
inactive: [13] 101 % of control | [14] 101 % of control | [15] 104 % of control | [16] 93 % of control

COc1cc(N2C(=O)C=CC2=O)ccc1N1C(=O)C=CC1=O
inactive: dose: 5.0 mg/kg/injection, schedule: Q01DX001 (ip), vehicle: saline 111 % of control | dose: 10.0 mg/kg/injection, schedule: Q01DX001 (ip), vehicle: saline 111 % of control

O=C(O)C1=C(C2CCCCC2)C(=O)c2ccccc21
inactive: dose: 75.0 mg/kg/injection, schedule: Q01DX001 (ip), vehicle: other 112 % of control | dose: 150.0 mg/kg/injection, schedule: Q01DX001 (ip), vehicle: other 93 % of control | dose: 300.0 mg/kg/injection, schedule: Q01DX001 (ip), vehicle: other 102 % of control

COc1ccc(COC(=O)Nc2ccc(Cl)c(Cl)c2)cc1OC
inactive: [7] 95 % of control | [8] 101 % of control | [9] 88 % of control | [10] 106 % of control | [11] 95 % of control | [12] 90 % of control

C=CCOC(=O)COCC(=O)OCC=C
inactive: [17] 97 % of control | dose: 200.0 mg/kg/injection, schedule: Q04DX003 (ip), vehicle: saline 88 % of control

CCCCCc1cc[n+](CC(=O)c2ccccc2)cc1
inactive: dose: 25.0 mg/kg/injection, schedule: Q04DX003 (ip), vehicle: saline 100 % of control | [4] 93 % of control | [17] 87 % of control

C[N+](C)(C)CCSc1ccc2c3c(cccc13)C(=O)c1ccccc1-2
inactive: dose: 12.5 mg/kg/injection, schedule: Q04DX002 (ip), vehicle: saline 107 % of control | dose: 25.0 mg/kg/injection, schedule: Q04DX002 (ip), vehicle: saline 104 % of control | dose: 50.0 mg/kg/injection, schedule: Q04DX002 (ip), vehicle: saline 86 % of control

CNc1cnc(Cl)nc1Cl
inactive: dose: 50.0 mg/kg/injection, schedule: Q01DX001 (ip), vehicle: acetone 98 % of control | dose: 100.0 mg/kg/injection, schedule: Q01DX001 (ip), vehicle: acetone 93 % of control | dose: 200.0 mg/kg/injection, schedule: Q01DX001 (ip), vehicle: acetone 97 % of control

Cc1c2cnccc2c(C)c2c1c1ccccc1n2CCCC#N
inactive: [8] 105 % of control | [10] 102 % of control | [12] 109 % of control

Clc1ccc2c(c1)/C(=C/c1ccccc1Cl)c1cc(Cl)cc(Cl)c1-2
inactive: dose: 100.0 mg/kg/injection, schedule: Q01DX001 (ip), vehicle: Klucel (hydroxypropylcellulose) (HPC) 90 % of control | [7] 100 % of control | [8] 91 % of control | dose: 200.0 mg/kg/injection, schedule: Q01DX001 (ip), vehicle: Klucel (hydroxypropylcellulose) (HPC) 88 % of control | [9] 88 % of control | [10] 87 % of control | dose: 400.0 mg/kg/injection, schedule: Q01DX001 (ip), vehicle: Klucel (hydroxypropylcellulose) (HPC) 91 % of control | [11] 102 % of control | [12] 87 % of control

COC(=O)CNC(=O)C1CCCN1C(=O)C(Cc1c[nH]c2ccccc12)NC(=O)OC(C)(C)C (stereo not drawn) (Boc-Trp-Pro-Gly-OMe; configuration not given here)
inactive: [5] 88 % of control | [6] 100 % of control | [18] 100 % of control

c1ccc(-c2csc3cccc[n+]23)cc1
inactive: [1] 102 % of control

O=C1OC(COCC#Cc2ccccc2)CN1c1ccccc1 (configuration not stated)
inactive: [5] 105 % of control | [1] 95 % of control | [6] 106 % of control | [2] 101 % of control | [18] 103 % of control | [3] 100 % of control

O=C(NO)N/N=C/C=N/NC(=O)NO
inactive: dose: 75.0 mg/kg/injection, schedule: Q01DX001 (ip), vehicle: saline 100 % of control | dose: 150.0 mg/kg/injection, schedule: Q01DX001 (ip), vehicle: saline 100 % of control | dose: 300.0 mg/kg/injection, schedule: Q01DX001 (ip), vehicle: saline 107 % of control

COC1=C(NCc2ccccc2)C(=O)C(OC)=C(NCc2ccccc2)C1=O
inactive: [13] 113 % of control | [14] 101 % of control | [7] 92 % of control | [8] 90 % of control | [15] 107 % of control | [9] 95 % of control | [10] 93 % of control | [16] 107 % of control | [11] 92 % of control | [12] 97 % of control

O=C1OC2C3C=CC(CC3)C2O1 (configuration not stated)
inactive: dose: 7.5 mg/kg/injection, schedule: Q04DX002 (ip), vehicle: Klucel (hydroxypropylcellulose) (HPC) 105 % of control | dose: 15.0 mg/kg/injection, schedule: Q01DX001 (ip), vehicle: carboxymethylcellulose (CMC) 101 % of control | dose: 15.0 mg/kg/injection, schedule: Q04DX002 (ip), vehicle: Klucel (hydroxypropylcellulose) (HPC) 99 % of control | dose: 30.0 mg/kg/injection, schedule: Q01DX001 (ip), vehicle: carboxymethylcellulose (CMC) 114 % of control | dose: 30.0 mg/kg/injection, schedule: Q04DX002 (ip), vehicle: Klucel (hydroxypropylcellulose) (HPC) 96 % of control

CCN=C(N)SCC
inactive: dose: 100.0 mg/kg/injection, schedule: Q04DX002 (ip), vehicle: saline 95 % of control | dose: 200.0 mg/kg/injection, schedule: Q04DX002 (ip), vehicle: saline 95 % of control

CC(C)(C)CC(C)(C)c1ccc(OCCOc2ccccc2NC(=O)c2ccc3ccccc3c2O)cc1
inactive: [1] 98 % of control | [2] 103 % of control | [3] 86 % of control

[O-][n+]1ccc(N2CCOCC2)cc1
inactive: [4] 100 % of control
